Laboratory results from patent publication US10882865B2, “Pyrrolopyrimidine compounds and uses thereof for modulating glucocerebrosidase activity” (Northwestern University, priority 2018, dated 2021).

Target: T1, glucocerebrosidase (GCase) (Homo sapiens, UniProt P04062)
T1 sequence (P04062 40-536): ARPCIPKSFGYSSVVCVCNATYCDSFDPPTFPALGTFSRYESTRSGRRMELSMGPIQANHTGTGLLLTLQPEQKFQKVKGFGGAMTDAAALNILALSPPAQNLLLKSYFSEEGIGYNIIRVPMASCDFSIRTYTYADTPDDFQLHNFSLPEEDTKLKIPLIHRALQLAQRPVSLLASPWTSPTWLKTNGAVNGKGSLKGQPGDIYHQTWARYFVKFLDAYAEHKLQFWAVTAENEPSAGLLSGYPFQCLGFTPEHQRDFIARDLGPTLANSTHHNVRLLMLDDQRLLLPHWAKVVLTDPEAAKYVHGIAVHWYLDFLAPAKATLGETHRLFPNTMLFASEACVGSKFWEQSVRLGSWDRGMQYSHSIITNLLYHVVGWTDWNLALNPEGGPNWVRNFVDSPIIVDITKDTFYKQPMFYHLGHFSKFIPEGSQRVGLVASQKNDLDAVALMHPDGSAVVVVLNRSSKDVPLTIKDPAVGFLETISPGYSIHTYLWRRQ
Test: Glucocerebrosidase activation (Table 1, Exemplary Compounds and Activities)
Assay type: biochemical
Settings: activation of glucocerebrosidase; for Emax: read-out: Maximum Activation (Emax)
From the text: The compounds disclosed herein preferably modulate activity of glucocerebrosidase. Modulation may include inhibiting or decreasing glucocerebrosidase activity. Modulation also may include activating or increasing glucocerebrosidase activity. Glucocerebrosidase activity may be assessed utilizing methods known in the art and the methods disclosed herein, including the methods disclosed in the Examples provided herein. In some embodiments, the compounds decrease or increase glucocerebrosidase activity relative to a control (e.g., by at least about 10%, 20%, 30%, 40%, 50%, 60%, 70%, 80%, 90%, 100%, 200%, 300%, 400%, 500%, 600%, 700%, 800%, 900%, 1000% or more (or within a range bounded by any of these values)). In other embodiments, the compounds activate glucocerebrosidase greater than about 2-fold, 3-fold, 4-fold, 5-fold, 10-fold, 20-fold, 30-fold, 40-fold, 50-fold, 60-fold, 70-fold, 80-fold, 90-fold, or 100-fold, relative to a control. […] In other embodiments, an AC50 value for the compound in regard to activation of glucocerebrosidase may be determined and preferably the compound has an AC50 value of less than about 10 μM, 5 μM, or 1 μM, 0.5 μM, 0.1 μM, 0.05 μM, 0.01 μM, 0.005 μM, or 0.001 μM (or within a range bounded by any of these values).
Methods for measuring glucocerebrosidase activity are known in the art. (See, e.g., U.S. Publication No. 2017/0001976 and U.S. Publication No. 2017/0002013 and Zheng et al. “Design and Synthesis of Potent Quinazolines as Selective β-Glucocerebrosidase Modulators, J. Med. Chem. 2016 September 22; 59(18): 8508-8520; the contents of which are incorporated herein by reference in their entireties).
The disclosed pyrrolopyrimidine compounds were synthesized and tested using the methods described below. Additional methods for synthesizing and testing pyrrolopyrimidine compounds are described in the art. (See, e.g., Zheng et al., β-Glucocerebrosidase Modulators Promote Dimerization of β-Glucocerebrosidase and Reveal an Allosteric Binding Site, J. Am. Chem. Soc., 2018, 140 (18), pp 5914-5924; and U.S. Pat. No. 9,802,942; the contents of which are incorporated herein by reference in their entireties).

Row | Structure (SMILES) | AC50 | Emax
1 | Cc1cc(C)n2ccc(C(=O)Nc3cccc(CC(=O)ON4C(=O)CCC4=O)c3)c2n1 [compound 3, 2,5-dioxopyrrolidin-1-yl 2-(3-(2,4-dimethylpyrrolo[1,2-a]pyrimidine-8-carboxamido)phenyl)acetate] | 9.09 µM | 500%
2 | CCOC(=O)c1cccc(NC(=O)c2ccn3c(C)cc(C)nc23)c1 [compound 4] | 1.18 µM | 400%
3 | Cc1cc(C)n2ccc(C(=O)Nc3cccc(C(=O)O)c3)c2n1 [compound 5] | 2.87 µM | 175%
4 | Cc1cc(C)n2ccc(C(=O)Nc3cccc4c3CCC4)c2n1 [compound 10] | 0.77 µM | 202%
5 | Cc1cc(C)n2ccc(C(=O)Nc3cccc4c3CCCC4)c2n1 [compound 11] | 1.41 µM | 400%
6 | COC(=O)CCc1ccc(NC(=O)c2ccn3c(C)cc(C)nc23)cc1 [compound 13] | 0.63 µM | 180%
7 | C=CC(=O)Nc1cccc(NC(=O)c2ccn3c(C)cc(C)nc23)c1 [compound 14] | 6.46 µM | –
8 | Cc1cc(C)n2ccc(C(=O)Nc3ccc(CCC(=O)O)cc3)c2n1 [compound 15] | 36.6 µM | 700%
9 | Cc1cc(C)n2ccc(C(=O)Nc3ccc4c(c3)C(=O)CC4)c2n1 [compound 16] | 1.49 µM | 225%
10 | Cc1cc(C)n2ccc(C(=O)Nc3ccc4c(c3)C(=O)CCC4)c2n1 [compound 17] | 3.88 µM | 750%
11 | CCOC(=O)c1ccc(NC(=O)c2ccn3c(C)cc(C)nc23)cc1 [compound 19] | 0.71 µM | 250%
12 | CCOC(=O)Cc1ccc(NC(=O)c2ccn3c(C)cc(C)nc23)cc1 [compound 20] | 6.1 µM | 550%
13 | Cc1cc(C)n2ccc(C(=O)Nc3ccc(C(=O)O)cc3)c2n1 [compound 21] | 35.5 µM | 622%
14 | Cc1cc(C)n2ccc(C(=O)NCC3COc4ccccc4O3)c2n1 (stereo not shown) [compound 23] | 28.2 µM | 644%
15 | Cc1cc(C)n2ccc(C(=O)Nc3ccc4c(c3)CCCC4)c2n1 [compound 24] | 3.55 µM | 527%
16 | Cc1cc(C)n2ccc(C(=O)Nc3ccc4c(c3)COC4)c2n1 [compound 25] | 7.94 µM | 456%
17 | Cc1cc(C)n2ccc(C(=O)Nc3ccc(CCC(=O)ON4C(=O)CCC4=O)cc3)c2n1 [compound 27] | 2.82 µM | 620%
18 | Cc1cc(C)n2ccc(C(=O)Nc3ccc(CC(=O)ON4C(=O)CCC4=O)cc3)c2n1 [compound 29] | 4.47 µM | 374%
19 | Cc1cc(C)n2ccc(C(=O)Nc3ccc4c(c3)CCO4)c2n1 [compound 30] | 1.12 µM | 198%
20 | Cc1cc(C)n2ccc(C(=O)Nc3ccc4c(c3)CCCC4=O)c2n1 [compound 31] | 1 µM | 355%
21 | Cc1cc(C)n2ccc(C(=O)Nc3c(C)nn(Cc4ccccc4)c3C)c2n1 [compound 33] | 39.8 µM | 914%
22 | Cc1cc(C)n2ccc(C(=O)Nc3cccc(Oc4ccccc4)c3)c2n1 [compound 36] | 1.42 µM | 280%
23 | Cc1cc(C)n2ccc(C(=O)Nc3cccc(CCC(=O)O)c3)c2n1 [compound 37] | 8.91 µM | 427%
24 | Cc1cc(C)n2ccc(C(=O)Nc3cccc(CCC(=O)ON4C(=O)CCC4=O)c3)c2n1 [compound 38] | 4.47 µM | 810%
25 | Cc1cc(C)n2ccc(C(=O)Nc3nc4c(s3)CCCC4)c2n1 [compound 44] | 1.58 µM | 342%
26 | Cc1cc(C)n2ccc(C(=O)Nc3nc4c(s3)CC(C)CC4)c2n1 (stereo not shown) [compound 45] | 1.78 µM | 325%
27 | CCOC(=O)Cc1cc(NC(=O)c2ccn3c(C)cc(C)nc23)ccc1CCCOCCOCCOCCOCCNC(=O)C1CCCCC1 [compound 48] | 3.16 µM | 796%
28 | Cc1cc(C)n2ccc(C(=O)Nc3ccc(CCCOCCOCCOCCOCCNC(=O)C4CCCCC4)c(CC(=O)ON4C(=O)CCC4=O)c3)c2n1 [compound 49] | 3.55 µM | –

Continued, values first:

Row | AC50 | Emax | Structure (SMILES)
29 | 6.59 µM | 450% | COC(=O)Cc1cccc(NC(=O)c2ccn3c(C)cc(C)nc23)c1 [compound 1]
30 | 30 µM | 550% | Cc1cc(C)n2ccc(C(=O)Nc3cccc(CC(=O)O)c3)c2n1 [compound 2]
31 | 4.59 µM | 460% | Cc1cc(C)n2ccc(C(=O)Nc3cccc(C(=O)ON4C(=O)CCC4=O)c3)c2n1 [compound 6]
32 | 3.39 µM | 210% | Cc1cc(C)n2ccc(C(=O)Nc3cccc(N)c3)c2n1 [compound 7]
33 | 3.43 µM | 480% | Cc1cc(C)n2ccc(C(=O)Nc3cccc(NC(=O)CCl)c3)c2n1 [compound 8]
34 | 2.23 µM | 280% | Cc1cc(C)n2ccc(C(=O)Nc3cccc(C(C)C)c3)c2n1 [compound 9]
35 | 3.44 µM | 300% | Cc1cc(C)n2ccc(C(=O)Nc3cccc(CC(C)C)c3)c2n1 [compound 12]
36 | 35.5 µM | 429% | Cc1cc(C)n2ccc(C(=O)Nc3ccc(CC(=O)O)cc3)c2n1 [compound 22]
37 | 1.12 µM | 290% | Cc1cc(C)n2ccc(C(=O)Nc3ccc4c(c3)CCC4)c2n1 [compound 26]
38 | 50 µM | 115% | Cc1cc(C)n2ccc(C(=O)Nc3ccc(C(=O)ON4C(=O)CCC4=O)cc3)c2n1 [compound 28]
39 | 3.55 µM | 578% | COC(=O)CCc1cccc(NC(=O)c2ccn3c(C)cc(C)nc23)c1 [compound 34]
40 | 2.24 µM | 298% | Cc1cc(C)n2ccc(C(=O)Nc3ccccc3Oc3ccccc3)c2n1 [compound 35]
41 | 10 µM | – | COC(=O)Cc1cc(NC(=O)c2ccn3c(C)cc(C)nc23)ccc1-c1cn(CCOCCOCCO)nn1 [compound 39]
42 | 4.47 µM | – | COC(=O)Cc1cc(NC(=O)c2ccn3c(C)cc(-c4cccnc4)nc23)ccc1-c1cn(CCOCCOCCO)nn1 [compound 40]
43 | 28.2 µM | – | Cc1cc(C)n2ccc(C(=O)Nc3ccc(-c4cn(CCOCCOCCO)nn4)c(CC(=O)O)c3)c2n1 [compound 41]
44 | 5 µM | 715% | Cc1cc(C)n2ccc(C(=O)NCc3ccccc3CNC(=O)c3ccn4c(C)cc(C)nc34)c2n1 [compound 42]
45 | 1.41 µM | 296% | Cc1cc(C)n2ccc(C(=O)Nc3cccc(-c4ccccc4)c3)c2n1 [compound 43]
46 | 1.12 µM | 230% | Cc1cc(C)n2ccc(C(=O)Nc3nc4c(s3)CC(C)(C)CC4)c2n1 [compound 46]
47 | 4.47 µM | 230% | Cc1cc(C)n2ccc(C(=O)Nc3cccc(CC(=O)Oc4ccccc4)c3)c2n1 [compound 50]
48 | 10 µM | 172% | Cc1cc(C)n2ccc(C(=O)Nc3cccc(CC(=O)Oc4ccc([N+](=O)[O-])cc4)c3)c2n1 [compound 51]
